# Values joined by “and” are separate entries in the source; they are usually repeats but may differ in a detail not shown here. Equal entries are not always repeated. Where two headings read alike, the source gives them in different places.
# Columns and labels:
# [1] = system: patients with solid tumors; conditions: cited from earlier work
# [2] = system: patients with advanced solid malignancies; conditions: cited from earlier work
# [3] = system: patients with advanced solid tumors; assay: Phase I dose escalation (3 + 3 design): DLTs and MTD/RP2D of CRLX101 plus olaparib; assay type: in vivo, human; conditions: CRLX101 12 mg/m2 combined with Olaparib 250 tab bid; % of single-agent MTD; Current study
# Description: Olaparib tablets were given at escalating doses across cohorts (as shown in Fig. 1), administered twice daily on days 3–13 and 17–26 of the treatment cycle.
# A standard 3 + 3 design was used for dose escalation. […] DLTs were based on toxicities observed during the first cycle. […] Study treatment was discontinued if there was a > 3-week delay in reinstitution of treatment due to drug-related toxicity during a cycle. Dose reductions were allowed for toxicities. A maximum of two dose reductions were allowed. Dose re-escalation was not allowed.
# [4] = system: γ-H2AX; assay: γ-H2AX foci per cell in PBMCs; assay type: in vivo, human; conditions: for γ-H2AX foci per cell in PBMCs Minus D1, averages (Fig 3G) / γ-H2AX foci per cell in PBMCs, averages (Fig 3G): D3 (before olaparib); for γ-H2AX, AVERAGES foci per cell / γ-H2AX, AVERAGES excess foci per cell: PBMCs; for γ-H2AX, AVERAGES foci per cell: D3 (48 h after CRLX101, before olaparib)
# Experimental: (§1) PBMCs were isolated by Ficoll gradient, washed 3 times with phosphate-buffered saline (PBS), fixed in 2% paraformaldehyde (PFA) for 20 min, washed 3 times with PBS, and spotted on slides by cytospin (800 rpm/4 min). PBMCs on slides were permeabilized with pre-chilled ethanol 70% and slides were stored at 4 °C overnight. […] Finally, slides were incubated at 37 °C for 5 min with a solution containing RNAse A (0.5 mg/mL) and propidium iodide (PI) (5 µg/mL). Slides were then mounted with mounting medium containing PI (Vectashield, Vector Laboratories, Inc., Burlingame, CA, USA) and sealed with nail polish.
# (§2) Samples were imaged by laser scanning confocal microscopy (Zeiss LSM 710 NLO). Optical sections through PBMCs and hair bulbs were combined in a maximum projection using the Zeiss Zen software. The foci were counted in PBMCs using the FociCounter software[55] by analyzing at least 200 cells, while γ-H2AX intensities were measured in the extremity of the hair bulbs with the Image J software. The above antibodies have been used in previous studies[56],[57].
# [5] = system: γ-H2AX; assay: γ-H2AX intensity in plucked hair bulbs; assay type: in vivo, human; conditions: for gamma-H2AX intensities / excess gamma-H2AX intensities (minus D1) / gamma-H2AX intensities minus D1, averages / gamma-H2AX intensities, averages: plucked hairs; for gamma-H2AX intensities / excess gamma-H2AX intensities (minus D1): D3 (48 h after CRLX101, before olaparib); for gamma-H2AX intensities minus D1, averages / gamma-H2AX intensities, averages: D3 (before olaparib)
# Experimental: as §1
# Hair bulbs were collected in 1.5 microtubes filled with cold PBS and placed on ice directly after plucking. Plucked hairs were then fixed for 20 min at room temperature with 2% PFA in 1.5 microtubes. Following 3 washes with 1 ml PBS, plucked hairs were imaged, and anagen hair bulbs hairs were selected for γ-H2AX detection. Samples were permeabilized with pre-chilled ethanol 70%, washed, and stored at 4 °C until use. γ-H2AX detection was performed as described for PBMCs, but times for blocking and staining procedures were increased by 50%. Washes were performed by 3 washes with PBS. After incubation with the RNAse and PI solution at 37 °C for 30 min, hair shafts were detached from the bulbs by using a razor blade, and hair bulbs were mounted between a slide and a coverslip with mounting medium containing PI and sealed with nail polish.
# as §2
# [6] = system: platinum-sensitive SCLC relapse; design: method as in protocol [8]; conditions: preliminary data, ref protocol [8], cited from earlier work
# [7] = system: SCLC cell lines; design: method as in protocol [5]; conditions: pre-clinical models of SCLC; ref protocol [5]; cited from earlier work
# [8] = system: xenografts and patient-derived xenografts (PDXs); design: method as in protocol [7]; conditions: animal models; ref protocol [7]; cited from earlier work
# [9] = phase 1/2a patients receiving the MTD (n=44), no grade 4
compound,measurement,setting,value
CC[C@@]1(O)C(=O)OCc2c1cc1n(c2=O)Cc2cc3c(CN(C)C)c(O)ccc3nc2-1 [topotecan],Topo1i % of MTD,"[1]; Topotecan 0.6 mg/m2/d1-5 with Veliparib 10 bid d1-5, % of single-agent MTD, ref Kummar, Can Res, 2011",40%
same,Topo1i % of MTD,"[1]; Topotecan 1 mg/m2/d1-3 with Olaparib 100 mg bid d1-21, ref Samol, Inv New Drugs, 2012",40%
same,Topo1i % of MTD,"[1]; Topotecan 3 mg/m2 d2,9,16 with Veliparib 300 mg bid, ref Hendrickson, Clin Can Res, 2017",75%
Poly-CD-PEG-Camptothecin [CRLX101],Best overall response stable disease,[2]; 16 of a subset of NSCLC patients,73%
same,Best overall response stable disease,[2]; 28 patients treated at the MTD,64%
same,MTD,"[2]; CRLX101 monotherapy, bi-weekly, IV over 60 min, ref protocol [15]",15 mg/m2
same,Median progression-free survival (PFS),[2]; patients treated at the MTD,3.7 months
same,Grade 3 fatigue,[2]; [9],9%
same,Grade 3 neutropenia,[2]; [9],9%
same,Median progression-free survival (PFS),[2]; subset of NSCLC patients,4.4 months
same,Topo1i % of MTD,[3],80%
same,"γ-H2AX foci per cell in PBMCs Minus D1, averages (Fig 3G)",[4]; DL1,0.009559
same,"γ-H2AX foci per cell in PBMCs, averages (Fig 3G)","[4]; DL1, average across patients",0.2861
same,"γ-H2AX foci per cell in PBMCs Minus D1, averages (Fig 3G)",[4]; DL2,-0.04097
same,"γ-H2AX foci per cell in PBMCs, averages (Fig 3G)","[4]; DL2, average across patients",0.07487
same,"γ-H2AX foci per cell in PBMCs Minus D1, averages (Fig 3G)",[4]; DL3,0.07028
same,"γ-H2AX foci per cell in PBMCs, averages (Fig 3G)","[4]; DL3, average across patients",0.3286
same,"γ-H2AX foci per cell in PBMCs Minus D1, averages (Fig 3G)",[4]; DL4,0.05059
same,"γ-H2AX foci per cell in PBMCs, averages (Fig 3G)","[4]; DL4, average across patients",0.1354
same,"γ-H2AX foci per cell in PBMCs Minus D1, averages (Fig 3G)",[4]; DL4R,0.1138
same,"γ-H2AX foci per cell in PBMCs, averages (Fig 3G)","[4]; DL4R, average across patients",0.1974
same,"γ-H2AX, AVERAGES foci per cell","[4]; DL1, per patient",0.4504 foci per cell and 0.1217 foci per cell
same,"γ-H2AX, AVERAGES foci per cell","[4]; DL2, per patient",0.06098 foci per cell and 0.03645 foci per cell and 0.07605 foci per cell and 0.04348 foci per cell and 0.1574 foci per cell
same,"γ-H2AX, AVERAGES foci per cell","[4]; DL3, per patient",0.574 foci per cell and 0.2632 foci per cell and 0.1488 foci per cell
same,"γ-H2AX, AVERAGES foci per cell","[4]; DL4, per patient",0.05652 foci per cell and 0.07904 foci per cell and 0.3651 foci per cell and 0.04096 foci per cell
same,"γ-H2AX, AVERAGES foci per cell","[4]; DL4R, per patient",0.05895 foci per cell and 0.2317 foci per cell and 0.2655 foci per cell and 0.1875 foci per cell and 0.2432 foci per cell
same,"γ-H2AX, AVERAGES excess foci per cell","[4]; D3 (before olaparib) minus D1, DL1, per patient",0.02853 foci per cell and -0.009408 foci per cell
same,"γ-H2AX, AVERAGES excess foci per cell","[4]; D3 (before olaparib) minus D1, DL2, per patient",0.01208 foci per cell and -0.0007052 foci per cell and -0.1169 foci per cell and -0.007436 foci per cell and -0.09186 foci per cell
same,"γ-H2AX, AVERAGES excess foci per cell","[4]; D3 (before olaparib) minus D1, DL3, per patient",0.159 foci per cell and 0.113 foci per cell and -0.06118 foci per cell
same,"γ-H2AX, AVERAGES excess foci per cell","[4]; D3 (before olaparib) minus D1, DL4, per patient",-0.04714 foci per cell and 0.07394 foci per cell and 0.1683 foci per cell and 0.007302 foci per cell
same,"γ-H2AX, AVERAGES excess foci per cell","[4]; D3 (before olaparib) minus D1, DL4R, per patient",0.006793 foci per cell and 0.06366 foci per cell and 0.2087 foci per cell and 0.1048 foci per cell and 0.1705 foci per cell
same,γH2AX signal after CRLX101 alone,"[5]; Day 3 (48 h after CRLX101, pre-olaparib) vs pre-treatment, hair follicles and PBMC",increase in γH2AX signal
same,gamma-H2AX intensities,"[5]; DL1, average per patient",4.816
same,excess gamma-H2AX intensities (minus D1),"[5]; DL1, per patient",2.945
same,gamma-H2AX intensities,"[5]; DL2, average per patient",5.391 and 2.136 and 5.3349 and 5.978 and 6.804
same,excess gamma-H2AX intensities (minus D1),"[5]; DL2, per patient",2.273 and 0.6534 and 4.441 and 4.582 and 4.99
same,gamma-H2AX intensities,"[5]; DL3, average per patient",4.982 and 13.4338 and 12.7188
same,excess gamma-H2AX intensities (minus D1),"[5]; DL3, per patient",4.135 and 12.5502 and 12.1828
same,gamma-H2AX intensities,"[5]; DL4, average per patient",3.4222 and 3.662 and 5.428
same,excess gamma-H2AX intensities (minus D1),"[5]; DL4, per patient",2.309 and 3.241 and 5.235
same,gamma-H2AX intensities,"[5]; DL4R, average per patient",4.487 and 2.444 and 10.191 and 5.772
same,excess gamma-H2AX intensities (minus D1),"[5]; DL4R, per patient",3.986 and 2 and 9.666 and 4.568
same,"gamma-H2AX intensities minus D1, averages",[5]; DL1,2.945
same,"gamma-H2AX intensities, averages","[5]; DL1, average across patients",4.816
same,"gamma-H2AX intensities minus D1, averages",[5]; DL2,3.388
same,"gamma-H2AX intensities, averages","[5]; DL2, average across patients",5.129
same,"gamma-H2AX intensities minus D1, averages",[5]; DL3,9.623
same,"gamma-H2AX intensities, averages","[5]; DL3, average across patients",10.3781
same,"gamma-H2AX intensities minus D1, averages",[5]; DL4,0.8727
same,"gamma-H2AX intensities, averages","[5]; DL4, average across patients",4.171
same,"gamma-H2AX intensities minus D1, averages",[5]; DL4R,3.856
same,"gamma-H2AX intensities, averages","[5]; DL4R, average across patients",5.7233
CCc1c2c(nc3ccc(OC(=O)N4CCC(N5CCCCC5)CC4)cc13)-c1cc3c(c(=O)n1C2)COC(=O)[C@]3(O)CC [Irinotecan],Topo1i % of MTD,"[1]; Irinotecan 100 mg/m2 with Veliparib 40 bid d1-14, ref LoRusso, Clin Can Res, 2016",80%
same,Topo1i % of MTD,"[1]; Irinotecan 125 mg/m2 q2w with Olaparib 50 mg bid d1-5, ref Chen, Inv New Drugs, 2016",69%
same,Topo1i % of MTD,"[1]; Irinotecan 200 mg/m2 q3w with Olaparib 50 mg qd d1-21, ref Chen, Inv New Drugs, 2016",57%
Cn1ncnc1[C@H]1c2n[nH]c(=O)c3cc(F)cc(c23)N[C@@H]1c1ccc(F)cc1 [talazoparib],"RECIST confirmed partial responses, patients",[6]; of 23 patients,2
same,"stable disease lasting more than 24 weeks, patients",[6]; of 23 patients,3
same,clinical benefit rate,[6],25%
same,single agent activity,[7],striking single agent activity in a majority of SCLC cell lines tested
same,anti-tumor activity as a single agent,[8],comparable or superior to cisplatin
CNCc1ccc(-c2[nH]c3cc(F)cc4c3c2CCNC4=O)cc1 [rucaparib],single agent activity,[7],striking single agent activity in a majority of SCLC cell lines tested
C[C@]1(c2nc3c(C(N)=O)cccc3[nH]2)CCCN1 [veliparib],PARPi % of MTD,"[1]; Veliparib 50 mg BID with Liposomal Irinotecan 70 mg/m2 q2w, ref LaRose, Oncologist, 2023",13%
same,PARPi % of MTD,"[1]; Veliparib 300 mg bid with Topotecan 3 mg/m2 d2,9,16, ref Hendrickson, Clin Can Res, 2017",75%
same,PARPi % of MTD,"[1]; Veliparib 10 bid d1-5 with Topotecan 0.6 mg/m2/d1-5, % of single-agent MTD, ref Kummar, Can Res, 2011",3%
same,PARPi % of MTD,"[1]; Veliparib 10 bid d1-5 with Topotecan 0.6 mg/m2/d1-5, % of single-agent MTD, ref Kummar, Can Res, 2011, listed as Veliparib",≈ 3%
same,PARPi % of MTD,"[1]; Veliparib 40 bid d1-14 with Irinotecan 100 mg/m2, ref LoRusso, Clin Can Res, 2016",10%
